Like-named read-outs stand apart in the source and are kept apart here. Some results are limits rather than exact numbers.

For the assay, the system named is amphetamine-induced symptoms. Nature of the assay: antagonism of amphetamine-induced symptoms in rats (blocking of amphetamine behavior of cage movement). The note with it: Rattus norvegicus, ip. It is filed as in vivo. The text has this:
The tranquilizing agents of the present invention are characterized by relief of such schizophrenic manifestations in humans as hallucinations, hostility, suspiciousness, emotional and social withdrawal, anxiety, agitation and tension. Standard procedures of detecting and comparing tranquilizing activity of compounds in this series and for which there is an excellent correlation with human efficacy is the antagonism of amphetamine-induced symptoms in rats test as taught by A. Weissman, et al., J. Pharmacol. Exp. Ther., 151, 339 (1966) and by Quinton, et al., Nature, 200, 178 (1963).
The effects of the compounds of the present invention on prominent amphetamine-induced symptoms were studied in rats by a rating scale modeled after the one reported by Quinton and Halliwell; and Weissman. Groups of five rats were placed in a covered plastic cage measuring approximately 26 cm. × 42 cm. × 16 cm. After a brief period of acclimation in the cage, the rats in each group were treated intraperitoneally (i.p.) with the test compound. […] On the basis of dose-response data after amphetamine it was possible to determine the effective dose of the compound necessary to antagonize or block the characteristic amphetamine behavior of cage movement for fifty percent of the rats tested (ED50). The time of rating chosen coincides with the peak action of amphetamine which is 60-80 min. after treatment with this agent.
Employing the above-described procedure, the following compounds were tested for their ability to block the behavior effects to amphetamine, the results being reported as the ED50 in mg./kg. at the indicated times: […]

Where [1] appears, read: test compound i.p., d-amphetamine sulfate 5 mg./kg. i.p. 1 hr. later, rated one hour after amphetamine, read-out: ED50, 1 hr.
Setting [2] is: test compound i.p., d-amphetamine sulfate 5 mg./kg. i.p. 5 hrs. later, rated one hour after amphetamine, read-out: ED50, 5 hrs.

With `OC(CCCN1Cc2c(n(-c3ccc(F)cc3)c3ccc(F)cc23)C1)c1ccc(F)cc1` (centres unmarked), the ED50 under setting [1] lay in the range of 1 to 3.2 mg/kg and the ED50 under setting [2] lay within 1 to 3.2 mg/kg.

With `CN(C)CCCN1c2ccccc2Sc2ccc(Cl)cc21` [chlorpromazine, reference compound], the ED50 (1 h, read-out: ED50, 1 hr.) was greater than 10 mg/kg.

Consider `CN1Cc2c(n(-c3ccc(F)cc3)c3ccc(F)cc23)C1` [X = F, Z = F, R = CH3, 7-Fluoro-4-(p-fluorophenyl)-2-methyl-1,2,3,4-tetrahydropyrrolo[3,4-b]indole], for which the ED50 runs as follows: under setting [1], 3.2 to 5.6 mg/kg; under setting [2], greater than 10 mg/kg.
